Target: T1, FLuc-C-HiBiT (Photinus pyralis, UniProt P08659)
T1 construct: firefly luciferase with C-terminal HiBiT tag, E. coli expressed
Test: biochemical
Conditions: enzyme activity, 10 uM ATP; read-out: IC50 or SDR50 (mM) / FLuc E

T1 sequence (P08659 whole entry, looked up): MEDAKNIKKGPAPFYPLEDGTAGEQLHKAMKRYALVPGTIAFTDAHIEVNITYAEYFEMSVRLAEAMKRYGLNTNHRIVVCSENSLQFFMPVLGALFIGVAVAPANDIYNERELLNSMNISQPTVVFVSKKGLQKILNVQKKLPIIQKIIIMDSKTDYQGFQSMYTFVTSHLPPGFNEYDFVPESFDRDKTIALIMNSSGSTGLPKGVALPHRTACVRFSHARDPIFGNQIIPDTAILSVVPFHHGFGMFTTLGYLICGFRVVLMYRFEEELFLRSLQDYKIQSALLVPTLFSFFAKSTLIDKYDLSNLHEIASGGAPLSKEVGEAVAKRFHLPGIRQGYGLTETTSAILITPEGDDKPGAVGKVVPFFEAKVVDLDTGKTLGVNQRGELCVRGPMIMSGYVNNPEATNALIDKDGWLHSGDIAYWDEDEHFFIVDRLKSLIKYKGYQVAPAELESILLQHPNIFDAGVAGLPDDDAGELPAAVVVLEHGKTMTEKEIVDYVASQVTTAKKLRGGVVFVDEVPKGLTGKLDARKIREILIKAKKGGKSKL

Cc1cn2nc(C(=O)Nc3ccc(N(C)C)cc3)cc2c(N2CCCC2)n1 [NCGC00454051-01]
IC50: 0.0111 mM

Cc1c(C(=O)Nc2cccc(-c3nc4ccccc4s3)c2)oc2ccc(F)cc12 [NCGC00119183-01]
IC50: > 0.03 mM

O=C(c1ccc(C(F)(F)F)cc1)N1CCc2nc(-c3ccccc3)nc(-c3ccc(Cl)cc3)c2C1 [NCGC00480461-01]
IC50: > 0.03 mM

Cc1cc2c(c(-c3nc4ccccc4s3)c1)OC(CNC(=O)CCc1cccnc1)C2 (stereo not drawn) [NCGC00239520-01]
IC50: 0.0176 mM

Cc1cc(-c2nc3cc(F)ccc3s2)ccc1N [NCGC00402259-04]
IC50: 0.00111 mM

CCc1ccc(-n2nc(CO)c(C(=O)NC)n2)cc1 [NCGC00117187-01]
IC50: 0.0176 mM

COc1ccccc1OC(C)C(=O)Nc1cccc(-c2nc3ccccc3s2)c1 (stereo not drawn) [NCGC00119157-01]
IC50: 0.00881 mM

COc1ccc(C(=O)N[C@@H]2CN(C(=O)Nc3ccc(OC(F)(F)F)cc3)CCC[C@H]2O)cc1 [NCGC00401608-01]
IC50: 0.0111 mM

CCCNC(=O)C1C(c2cccc(NC(=O)c3ccc(C)cc3)c2)OC(=O)N1Cc1ccc(C)cc1 (stereo not drawn) [NCGC00475006-01]
IC50: 0.00442 mM

CC(=O)NC1(C)CN(Cc2ccc(-c3ccc4c(ccn4C)c3)s2)C1 [NCGC00410429-01]
IC50: 0.00286 mM

CN(Cc1cnn(C)c1)C(=O)c1csc2nc(-c3ccc(C(F)(F)F)cc3)cn12 [NCGC00425000-01]
IC50: 0.00442 mM

COc1cc2c(cc1-c1ccc(CO)cc1)NC(=O)C21CCN(C)CC1 [NCGC00416803-01]
IC50: 0.0202 mM

CN1CCN(c2ccc(-c3cc4c(ccn4C)c(C(=O)NCCc4ccccn4)n3)cc2)CC1 [NCGC00411712-01]
IC50: 0.00279 mM

COc1ccc(Nc2cc(C(=O)NC3CCC(C)CC3)c3ccccc3n2)cc1OC (stereo not drawn) [NCGC00108132-01]
IC50: > 0.03 mM

COc1ccc(CN2CCOc3nc(-c4cc5ccccc5o4)ncc3C2=O)cc1 [NCGC00413542-01]
IC50: 0.00805 mM

CCOc1cccc(NC(=O)CSc2ncc(-c3ccccc3)[nH]2)c1 [NCGC00106968-01]
IC50: > 0.03 mM

O=C(Nc1cccc(Cl)c1)c1cc(-c2ccc3c(c2)OCCO3)on1 [NCGC00118845-01]
IC50: 0.000624 mM

Cc1ccc(Cl)cc1NC(=O)c1cc(-c2ccc3c(c2)OCCO3)on1 [NCGC00118917-01]
IC50: 0.00176 mM

Cc1ccc(-c2ncc3c(n2)OCCN(Cc2ccc(F)cc2F)C3=O)cc1 [NCGC00413538-01]
IC50: > 0.03 mM

COc1cc(-c2nc3ccccc3s2)ccc1O [NCGC00390758-02]
IC50: 0.0111 mM

O=C(Nc1cccc(Br)c1)c1cc(-c2ccc3c(c2)OCCO3)on1 [NCGC00118911-01]
IC50: 0.000989 mM

COc1ccc(-c2cc3c(cn2)CN(Cc2cccnc2)CCN3)cc1F [NCGC00411039-01]
IC50: 0.0143 mM

COc1cc(OC)cc(C(=O)Nc2ccccc2-c2nc3ccccc3s2)c1 [NCGC00098479-01]
IC50: > 0.03 mM

O=C(c1cc2ccc3cccnc3c2[nH]1)N1CCCCC1 [NCGC00126930-01]
IC50: 0.00157 mM

O=C(O)c1ccc(-c2noc(-c3ccc(C(F)(F)F)cc3)n2)cc1 [NCGC00168758-01]
IC50: 0.000313 mM

CC1CCCN(c2ncnc3c2cnn3-c2cccc(Cl)c2)C1 (stereo not drawn) [NCGC00523592-01]
IC50: 0.000785 mM

Fc1ccc(Cc2cn3cc(-c4ccc(Cl)cc4)nc3s2)cc1 [NCGC00102108-01]
IC50: 0.00351 mM

CN1c2cc(C(=O)Nc3cc(F)ccc3F)ccc2C(=O)N2CCCCCC21 (stereo not drawn) [NCGC00452248-01]
IC50: 0.0124 mM

O=C(O)COCC(=O)N[C@H]1CCN2C(=O)c3cc(/C=C/c4ccccc4)ccc3NC(=O)[C@H]12 [NCGC00395144-01]
IC50: 0.0124 mM

Cc1ccc(-n2nc(C)c([C@@H]3C=C[C@@H](NC(=O)Nc4ccc(Cl)cc4)C3)c2C)cc1Cl [NCGC00400070-01]
IC50: 0.00989 mM

CCc1nn2c(-c3ccco3)ccnc2c1-c1ccc(F)cc1 [NCGC00164922-01]
IC50: 0.00785 mM

O=C(NCCc1ccccc1Cl)c1ccc2c(c1)nc1n2CCCCC1 [NCGC00133356-01]
IC50: 0.00111 mM

Cc1cccc(OCCn2nnc3sc4c(c3c2=O)CCCC4)c1 [NCGC00117282-01]
IC50: 0.0124 mM

COC(=O)c1c(-c2cccs2)csc1NC(=O)c1ccc(Br)cc1 [NCGC00118335-01]
IC50: 0.0111 mM

COc1cccc(CNC(=O)N2c3ccccc3CC2c2noc(C3CCOCC3)n2)c1 (stereo not drawn) [NCGC00471511-01]
IC50: 0.00989 mM

Cc1cncc(C(=O)N2CCOc3c(O)cc(-c4nc5ccccc5s4)cc3C2)c1 [NCGC00433624-01]
IC50: > 0.03 mM

COc1ccc(NC(=O)c2cc3ccccc3o2)c(OC)c1 [NCGC00141077-01]
IC50: 0.00495 mM

CCc1cccc(NC(=O)Nc2cccc(-c3ccc(N4CCOCC4)nn3)c2)c1 [NCGC00427616-01]
IC50: 0.00624 mM

Cc1ccc(Cl)cc1-n1ncc2c(N3CCC(C(N)=O)CC3)ncnc21 [NCGC00138952-01]
IC50: > 0.03 mM

Cc1cn2nc(C(=O)Nc3ccc4c(c3)OCCO4)cc2c(N(C)Cc2ccccc2)n1 [NCGC00454161-01]
IC50: 0.00989 mM

O=C(Nc1cccc(F)c1)Nc1ccc2n(c1=O)C[C@H]1C[C@@H]2CN(C(=O)c2ccc(F)cc2)C1 [NCGC00398007-01]
IC50: 0.007 mM

Fc1ccc(-c2cc3c(cn2)CN(Cc2ccncc2)CCN3)cc1Cl [NCGC00411256-01]
IC50: 0.018 mM

Cc1cc(-c2cccc(COc3ccc4c(cnn4CC[S+](C)(=O)[O-])c3)c2)ccn1 [NCGC00418048-01]
IC50: 0.018 mM

Cc1c(-c2ccccc2F)[nH]c2ccc(CNC(=O)C3CCCN(C(N)=O)C3)cc12 (stereo not drawn) [NCGC00429038-01]
IC50: 0.00556 mM

Cc1ccc(-c2ncc3c(n2)OCCN(C)C3=O)c(C)c1 [NCGC00413561-01]
IC50: 0.0226 mM

CCCOc1ccccc1C(=O)Nc1ccc(-c2nc3ccc(C)cc3s2)cc1 [NCGC00103054-01]
IC50: 0.00624 mM

CCC(=O)Nc1ccc2nnc(-c3ccc(C(=O)Nc4ccc5c(c4)OCCO5)cc3)n2c1 [NCGC00429833-01]
IC50: 0.00881 mM

CCOc1ccc(-c2cc(CCCC(=O)NCCc3ccc(SC)cc3)no2)cc1 [NCGC00110854-01]
IC50: 0.00313 mM

Cc1c(-c2ccccc2F)[nH]c2ccc(CNC(=O)C3C=CCN3)cc12 (stereo not drawn) [NCGC00438963-01]
IC50: 0.0124 mM

C[S+](=O)([O-])CCn1ncc2cc(OCc3cccc(-c4ccc(F)cc4)c3)ccc21 [NCGC00418040-01]
IC50: 0.0161 mM

O=C1c2cnc(-c3ccccc3)nc2OCCN1Cc1ccccc1 [NCGC00413632-01]
IC50: > 0.03 mM

CSCC(=O)N[C@H]1CCN2C(=O)c3cc(/C=C/c4ccccc4)ccc3NC(=O)[C@H]12 [NCGC00421159-01]
IC50: 0.0143 mM

CCNc1cc(N2CCC(CCC(=O)Nc3ccc4c(c3)OCCO4)CC2)ncn1 [NCGC00470231-01]
IC50: 0.0124 mM

CC(C)Oc1cccc(-c2cccc(COc3cnc4c(ccn4CC(=O)O)c3)c2)c1 [NCGC00418183-01]
IC50: 0.018 mM

O=C(c1cc(-c2ccc(F)cc2)nc2ccccc12)N1CCC(c2nc(C3CCOCC3)no2)C1 (stereo not drawn) [NCGC00453669-01]
IC50: 0.00989 mM

CCn1cc(-c2ccc(C)cc2)cc1C(=O)O [NCGC00432661-01]
IC50: > 0.03 mM

C[C@@H]1C(=O)O[C@H]2[C@H]1CC[C@@]1(C)Cc3sc(NCc4ccccc4)nc3[C@@H](C)[C@H]21 [NCGC00391358-01]
IC50: 0.00718 mM

C[C@H](C(=O)N1CCOCC1)C1CC[C@@]2(C)Cc3sc(-c4ccccc4)nc3[C@@H](C)[C@@H]2[C@H]1O (stereo partly drawn) [NCGC00421021-01]
IC50: 0.00351 mM

COc1ccc(CN2CCNc3cc(Nc4ccccc4)ncc3C2)cn1 [NCGC00411080-01]
IC50: 0.018 mM

CC(C)n1cc(-c2cc(C(=O)N3CCC(C)(C)C3)c3ccc(F)cc3n2)cn1 [NCGC00430819-01]
IC50: 0.00495 mM

c1ccc(Nc2cc3c(cn2)CN(CC2CCOC2)CCN3)cc1 (stereo not drawn) [NCGC00411051-01]
IC50: 0.0202 mM

O=c1oc2c(CN3CCCC3)c(O)ccc2cc1-c1ccccc1 [NCGC00134332-01]
IC50: > 0.03 mM

O=C(Nc1ccccc1F)c1ccc(-c2ccccc2)s1 [NCGC00114318-01]
IC50: 0.00248 mM

COc1ccc2c(C)c(-c3nc(C4CCOC4)no3)oc2c1 (stereo not drawn) [NCGC00443479-01]
IC50: > 0.03 mM

Cc1cccc(C(=O)Nc2nc3c(s2)CCCC3)c1 [NCGC00118410-01]
IC50: 0.00248 mM

Cc1ccc(NC(=O)N2CCC(CCNC(=O)C3CC3)CC2)cc1 [NCGC00424850-01]
IC50: 0.0111 mM

CC(=O)c1cccc(NC(=O)c2nc3ccccc3n(C)c2=O)c1 [NCGC00107713-01]
IC50: 0.00313 mM

Cc1ccc2[nH]c([C@H]3CCN(Cc4cccs4)C3)nc2c1 [NCGC00397946-01]
IC50: 0.0202 mM

COc1ccc(C(=O)N2CCc3ccc(C(=O)Nc4ccc5c(c4)OCCO5)cc32)cc1 [NCGC00430278-01]
IC50: 0.00556 mM

Cc1ccc(-c2nnc(SCc3ccccc3C#N)o2)cc1 [NCGC00103157-01]
IC50: 0.00221 mM

OCC1CCCN(c2ncnc3c2cnn3-c2ccccc2)C1 (stereo not drawn) [NCGC00624837-01]
IC50: 0.000394 mM

O=C(NCc1ccc2c(c1)OCO2)C1CCN(c2cc(C(F)(F)F)ncn2)CC1 [NCGC00455586-01]
IC50: 0.0111 mM

O=C1NCCCc2[nH]c(-c3cc(-c4cccc(F)c4)no3)nc21 [NCGC00447462-01]
IC50: 0.007 mM

COc1cccc(Nc2ncc(-c3cccnc3)c3c2OCC3)c1 [NCGC00412731-01]
IC50: 0.018 mM

COc1ccc(CN2CCNc3cc(-c4ccccc4)ncc3C2)cn1 [NCGC00411207-01]
IC50: 0.0202 mM

COc1ccc(-c2noc(-c3ccc(C)cc3Cl)n2)cc1OC [NCGC00102273-01]
IC50: 0.00124 mM

COCCN1CCOc2nc(-c3cccc(N(C)C)c3)ncc2C1=O [NCGC00413458-01]
IC50: 0.018 mM

O=C1c2cnc(-c3cccc(CO)c3)nc2OCCN1c1cccc(C(F)(F)F)c1 [NCGC00413455-01]
IC50: 0.0202 mM

CC(=O)N1CCNc2cc(-c3cccc(F)c3)ncc2C1 [NCGC00411252-01]
IC50: 0.0254 mM

CC(C)c1cnc(N2CCC(COc3ccc4c(cnn4CCC(=O)O)c3)CC2)nc1 [NCGC00418130-01]
IC50: 0.0202 mM

CN1CCOc2nc(-c3ccc(Oc4ccccc4)cc3)ncc2C1=O [NCGC00413560-01]
IC50: 0.0161 mM

Brc1ccccc1-c1nc(-c2ccccc2)no1 [NCGC00075547-01]
IC50: 0.00351 mM

Cc1ccc(Cl)cc1-n1ncc2c(N3CCC(C)CC3)ncnc21 [NCGC00138926-01]
IC50: > 0.03 mM

COc1ccc(C(=O)Nc2onc3c2CCCC3)cc1 [NCGC00115906-01]
IC50: 0.00197 mM
